Experiments:
human CD4 T cells = experiment: T cell exhaustion markers; type: cell-based
ITK Cys-442 = molecular target: T1, ITK Cys-442 (Homo sapiens, UniProt Q08881); experiment: Mass spectrometry of chymotryptic digest of inhibited ITK; type: binding; conditions: LC MS/MS, 5-fold molar excess
T1 construct: The protein construct comprised amino acids 2 to 620 of ITK; purchased Cama Bioscience (so in the source)
Method: ITK was obtained as a glutathione S transferase (GST) fusion protein from Cama Bioscience (Product Number 08 081, Lot 13CBS 0356K). The protein was supplied at 586 μg/mL (5.9 μM ITK) in 50 mM TRIS, 150 mM NaCl, 0.05% Brij35, 1 mM dithiothreitol, and 10% glycerol at pH 7.5. The protein construct comprised amino acids 2 to 620 of ITK and is fused to GST at the N terminus of ITK (ITK GST). To prepare the samples for mass spectral analysis, a 2 μM sample of the ITK GST fusion protein was incubated with a 5-fold molar excess of CPI 818 (10 μM). A control, untreated sample of ITK GST was prepared in parallel. […] After the incubation phase, samples were frozen and stored at −80° C. Mass spectral analysis was conducted in collaboration with the Stanford University mass spectrometry facility. The control, untreated ITK GST fusion protein, and the CPI 818 inhibited sample were subjected to chymotrypsin digestion and then analyzed by liquid chromatography coupled with tandem mass spectrometry (LC MS/MS). […] Ions electrosprayed from this column were detected using an Orbitrap Fusion mass spectrometer (Thermo Scientific, San Jose, CA) operated in a data dependent fashion using both ETD and HCD fragmentation to improve detection efficiency of modified peptides. […] Peptides were constrained to 12 ppm mass accuracy for precursor ions, and 0.4 Da mass accuracies for fragment ions detected in the ion trap. […]

Lck = Lck (Homo sapiens, UniProt P06239); experiment: Human kinome profiling at 1.0 μM, Lck; type: biochemical; conditions: read-out: percent control, Lck
Sequence of Lck (P06239 whole entry): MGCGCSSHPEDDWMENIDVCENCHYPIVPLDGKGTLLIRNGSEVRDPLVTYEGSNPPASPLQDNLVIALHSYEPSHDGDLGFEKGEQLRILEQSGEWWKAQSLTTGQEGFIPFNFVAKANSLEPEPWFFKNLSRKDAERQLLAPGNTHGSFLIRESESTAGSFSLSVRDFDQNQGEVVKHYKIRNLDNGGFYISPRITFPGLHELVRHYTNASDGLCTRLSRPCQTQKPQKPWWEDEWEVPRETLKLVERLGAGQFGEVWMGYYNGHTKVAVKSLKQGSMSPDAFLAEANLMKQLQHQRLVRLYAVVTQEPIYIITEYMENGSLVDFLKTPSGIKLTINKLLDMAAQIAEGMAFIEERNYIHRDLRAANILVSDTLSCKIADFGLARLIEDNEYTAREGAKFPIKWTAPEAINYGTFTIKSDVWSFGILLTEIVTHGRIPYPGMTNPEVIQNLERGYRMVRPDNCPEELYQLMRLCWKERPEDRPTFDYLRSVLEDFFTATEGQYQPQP

ITK = molecular target: T2, ITK (Mus musculus, UniProt Q03526); experiment: ITK occupancy in mouse splenocytes; type: in vivo; conditions: for receptor occupancy at 50 mg/kg: po
T2 construct: from tissue; host or cells: splenocytes of dosed C57Bl/6 mice
T2 sequence (Q03526 1-625): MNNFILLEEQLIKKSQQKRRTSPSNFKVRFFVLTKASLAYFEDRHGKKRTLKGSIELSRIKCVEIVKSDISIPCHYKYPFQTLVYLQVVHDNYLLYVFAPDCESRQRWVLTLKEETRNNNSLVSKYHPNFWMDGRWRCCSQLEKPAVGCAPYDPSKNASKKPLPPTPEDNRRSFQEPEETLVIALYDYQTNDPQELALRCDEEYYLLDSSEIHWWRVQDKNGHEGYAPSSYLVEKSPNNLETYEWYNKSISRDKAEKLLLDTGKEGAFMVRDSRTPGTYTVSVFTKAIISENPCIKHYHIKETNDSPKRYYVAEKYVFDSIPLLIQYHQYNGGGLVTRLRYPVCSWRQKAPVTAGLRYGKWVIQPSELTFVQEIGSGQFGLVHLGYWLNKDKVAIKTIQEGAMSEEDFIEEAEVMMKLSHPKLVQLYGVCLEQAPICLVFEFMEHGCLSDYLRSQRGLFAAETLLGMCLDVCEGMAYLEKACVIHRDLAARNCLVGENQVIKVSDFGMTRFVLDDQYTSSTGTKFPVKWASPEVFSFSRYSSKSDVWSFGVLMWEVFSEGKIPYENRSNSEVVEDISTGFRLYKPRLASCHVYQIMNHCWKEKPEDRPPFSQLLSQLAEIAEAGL
Method: The active site occupancy of ITK by a covalent inhibitor was measured using an irreversibly bound biotinylated probe in an immuno-electrochemiluminescence assay. The binding of an inhibitor and the probe to the ATP binding site is mutually exclusive. In lysates of immune cell lines or immune cells collected from treated animals, the biotinylated probe reacts with free (uninhibited) ITK and is subsequently captured on a streptavidin-coated surface and quantified. The free ITK in each sample is normalized by dividing it by either the lysate protein concentration (BCA protein assay, Pierce) or cell count of the sample. Normalized free ITK values are generated for samples collected prior to and after treatment from which occupancy was calculated using equation 7. Single cell suspensions of Jurkat cells, mouse splenocytes, dog PBMC or purified normal human T cells were prepared. Cell lysis was performed using a buffer containing CelLytic M (Sigma Aldrich) supplemented with protease and phosphatase inhibitors (Pierce). The cell pellet resuspended in lysis buffer was incubated at room temperature for 30 minutes when the lysate was clarified by centrifugation at 20,000×g for 5 minutes at 4° C. A solution of the biotinylated probe CP-613 (27.5 nM final, FIG. 14B) was added to the lysate and incubated with mixing for 60 minutes at room temperature. The lysate mixture (35 μL) was transferred in duplicate to separate wells of a blocked streptavidin-coated plate (Mesoscale Diagnostics) then incubated at room temperature with mixing for 60 minutes. The lysate mixture was removed from the plate and the wells were washed with three rounds of PBS/Tween 20 buffer (Thermo Scientific). Rabbit polyclonal anti-ITK antibody solution (Abcam) was dispensed into the wells of the plate and incubated at room temperature with mixing for 60 minutes. The antibody solution was removed from the wells and washed with three rounds of PBS/Tween 20 buffer. Anti-rabbit antibody (goat) sulfo-TAG (Mesoscale Diagnostics) was dispensed into the wells of the plate then incubated at room temperature with mixing for 60 minutes. The antibody solution was removed from the plate and the wells washed with three rounds of PBS/Tween 20 buffer. Read buffer (Mesoscale Diagnostics) diluted two-fold with water was dispensed into the wells of the plate which was read immediately using an MESO Quickplex SQ 120 instrument.
Male C57Bl/6 mice (6-8 weeks of age) were purchased from Charles River Laboratories. […] At scheduled time points mice were euthanized by asphyxiation by CO2 and their spleens were collected immediately and placed into ice cold PBS (N=4/timepoint). All animal procedures were conducted in accordance with a protocol approved by the IACUC committee at Corvus Pharmaceuticals.

[1] = Mouse pharmacokinetics after oral dosing; type: in vivo

T1 sequence (Q08881 2-620): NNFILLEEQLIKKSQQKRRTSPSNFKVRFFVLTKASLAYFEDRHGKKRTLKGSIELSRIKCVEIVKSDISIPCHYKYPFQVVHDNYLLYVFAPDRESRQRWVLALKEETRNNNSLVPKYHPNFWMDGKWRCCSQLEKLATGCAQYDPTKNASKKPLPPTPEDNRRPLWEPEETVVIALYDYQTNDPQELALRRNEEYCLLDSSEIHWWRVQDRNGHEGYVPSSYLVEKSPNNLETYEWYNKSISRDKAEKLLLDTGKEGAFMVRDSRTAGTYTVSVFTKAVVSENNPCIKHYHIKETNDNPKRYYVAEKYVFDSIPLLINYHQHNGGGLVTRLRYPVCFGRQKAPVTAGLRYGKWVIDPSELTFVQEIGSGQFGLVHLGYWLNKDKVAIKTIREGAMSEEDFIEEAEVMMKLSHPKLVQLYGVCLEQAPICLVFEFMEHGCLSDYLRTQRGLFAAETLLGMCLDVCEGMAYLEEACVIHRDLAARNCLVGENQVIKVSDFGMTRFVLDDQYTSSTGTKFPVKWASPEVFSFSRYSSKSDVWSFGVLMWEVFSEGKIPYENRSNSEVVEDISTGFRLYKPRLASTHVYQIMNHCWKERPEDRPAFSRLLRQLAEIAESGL

Question: For `C=CC(=O)N1CCCN(C(=O)c2cc(Sc3cnc(NC(=O)C4CC4)s3)c(C)cc2OC)C[C@H]1C` [CPI-818], which “T cell exhaustion: granzyme B and IFNγ levels” value (human CD4 T cells) is on record?
Answer: reverses T cell exhaustion

Question: What about the “LAG3, TIGIT and PD-1” value (human CD4 T cells; various concentrations) of the same compound?
Answer: downregulate biomarkers of T cell exhaustion

Question: And the “covalent modification of ITK peptides” value (ITK Cys-442)?
Answer: covalently labeling Cys-442

Question: What about the remaining activity at 1 µM (Lck) of the same compound?
Answer: 89%

Question: And the receptor occupancy at 300 mg/kg/day (ITK; mouse, chow formulation, 300 mg/kg/day)?
Answer: 86 to 95%

Question: What about the receptor occupancy at 50 mg/kg (ITK; mouse, 50 mg/kg BID PO, 2 h after dosing) of the same compound?
Answer: 95%

Question: And the receptor occupancy at 50 mg/kg (ITK; mouse, 50 mg/kg BID PO, 12 h, prior to second dose)?
Answer: 36%

Question: What about the receptor occupancy at 50 mg/kg (ITK; mouse, single 50 mg/kg PO, 24 h) of the same compound?
Answer: 17%

Question: And the receptor occupancy at 50 mg/kg (ITK; mouse, single 50 mg/kg PO, first 8 h)?
Answer: 87 to 98%

Question: What about the “ITK occupancy in splenocytes” value (ITK; single 50 mg/kg PO, first 8 h, 50 mg/kg) of the same compound?
Answer: > 87%

Question: And the ITK occupancy (ITK; single dose, 30 to 120 min)?
Answer: essentially complete ITK occupancy

Question: What about the Tmax ([1]; male, C57Bl/6, mouse, plasma, single 50 mg/kg PO) of the same compound?
Answer: 0.5 h

Question: What about the half-life ([1]; male, C57Bl/6, mouse, plasma, single 50 mg/kg PO, read-out: half-life in circulation (converted)) of the same compound?
Answer: 2.4 h

Question: And the oral bioavailability ([1]; mouse, in vivo, po)?
Answer: orally bioavailable

Question: And the “decrease of plasma concentration” value ([1]; single 50 mg/kg PO, over first 8 h)?
Answer: 10 fold
